In patent EP3722296B1, “DIHYDRONAPHTHYRIDINES AND RELATED COMPOUNDS USEFUL AS KINASE INHIBITORS FOR THE TREATMENT OF PROLIFERATIVE DISEASES” (Deciphera Pharmaceuticals, LLC, priority 2012, dated 2013):

Assays:
[1] = biological target: T1, Phospho-KIT (Tyr719) (Homo sapiens, UniProt P10721, K642E); test: GIST882 KIT Western Blot; type: cell-based; conditions: GIST882 cells, 4 hours, serum-free medium; read-out: pKIT suppression by western blot analysi GIST 882
T1 construct: endogenous in cells; host or cells: GIST882
Procedure: GIST48, GIST430, and GIST882 cells were obtained from J. Fletcher (Brigham and Women's Hospital, Boston, MA). GIST T1 cells were obtained from B. Rubin (Cleveland Clinic, Cleveland, OH) and Professor Takahiro Taguchi (Kochi Medical School, Nankoku, Kochi, Japan). […] GIST430 cells were grown in Ham's F10 medium supplemented with 15% characterized fetal bovine serum (Invitrogen, Carlsbad, CA), 30 mg/L bovine pituitary extract (BD Biosciences, San Jose, CA), 0.5% Mito+ serum extender (BD Biosciences, San Jose, CA), 1 unit/mL penicillin G, 1 µg/ml streptomycin, and 0.29 mg/mL L-glutamine at 37 °C, 5%CO2, 95% humidity. GIST T1 cells were grown in DMEM medium supplemented with 10% characterized fetal bovine serum (Invitrogen, Carlsbad, CA), 1 unit/mL penicillin G, 1 µg/ml streptomycin, and 0.29 mg/mL L-glutamine at 37 °C, 5% CO2, and 95% humidity.
Two hundred fifty thousand cells were added per well in a 24-well tissue-culture treated plate. […] Medium was aspirated, cells were washed with PBS, and serum-free RPMI1640 medium was added. […] Cells were washed with PBS, then lysed. Cell lysates were separated by SDS-PAGE and transferred to PVDF. Phospho-KIT (Tyr719) was detected using an antibody from Cell Signaling Technology (Beverly, MA), ECL Plus detection reagent (GE Healthcare, Piscataway, NJ) and a Molecular Devices Storm 840 phosphorimager in fluorescence mode. Blots were stripped and probed for total KIT using an antibody from Santa Cruz Biotech (Santa Cruz, CA). IC50 values were calculated using Prism software (Graphpad, San Diego, CA).

[2] = biological target: c-KIT kinase (Homo sapiens, UniProt P10721); test: c-KIT kinase Assay; type: biochemical; design: cKIT residues T544-V976; GST (N); TEV cleavage site (internal); purchased deCODE Biostructures; conditions: enzymatic assay, ATP 200 µM; read-out: KIT (wt) IC50
Outline: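 Activity of wild-type human c-KIT kinase was followed as NADH oxidation, read as falling absorbance at 340 nm on a Synergy 2 plate reader (BioTeK) for 2 hours at 30 °C. Rates from the 0 to 1 h window were compared with an uninhibited control to give percent inhibition. IC50 values were fitted in GraphPad Prism across a range of inhibitor concentrations.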

[3] = biological target: T2, c-KIT V654A kinase (Homo sapiens, UniProt P10721, V654A); test: c-KIT V654A Kinase Assay; type: biochemical; conditions: enzymatic assay, ATP 200 µM
T2 construct: residues T544-V976 with N-terminal GST fusion; purchased deCODE Biostructures
Outline: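 Construct: cKIT residues T544–V976 with N-terminal tag, GST fusion and TEV site. Reaction started by adding serially diluted compound to the enzyme mixture; NADH oxidation, coupled to kinase turnover, followed as the decrease in A340 for 6 h at 30 °C.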

[4] = biological target: T3, c-KIT T670I kinase (Homo sapiens, UniProt P10721, T670I); test: c-KIT T670I kinase assay; type: biochemical; conditions: enzymatic assay
T3 construct: The construct contains residues T544-V976 of cKit; GST (N); TEV cleavage site (internal); purchased deCODE Biostructures
Outline: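 Coupled spectrophotometric assay following NADH oxidation as absorbance decrease at 340 nm, monitored continuously for 5 h at 30 °C after adding serially diluted compound. Enzyme is a cKit construct with N-terminal tag, GST fusion and TEV site, carrying the T670I mutation.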

[5] = biological target: T4, c-KIT D816H kinase (Homo sapiens, UniProt P10721, D816H); test: c-KIT D816H Kinase Assay; type: biochemical; conditions: enzymatic assay, ATP 200 µM
T4 construct: The construct contains residues T544-V976 of cKit; GST (N); TEV cleavage site (internal); purchased deCODE Biostructures
Outline: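 Coupled spectrophotometric assay following NADH oxidation as absorbance decrease at 340 nm, monitored continuously for 6 hours at 30 °C after adding serially diluted compound. Enzyme: mutant cKit construct with N-terminal tag, GST fusion and TEV cleavage site.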

[6] = tested on: Phospho-KIT (Tyr719); test: GIST430 KIT Western Blot; type: cell-based; conditions: GIST430 cells, 4 hours, serum-free medium; read-out: pKIT suppression by western blot analysi GIST430
Outline: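 GIST430 cells were compound-treated in serum-free Ham's F10, then lysed. Phospho-KIT (Tyr719) was measured by western blot with fluorescence-mode ECL, and blots were reprobed for total KIT; IC50 derived from concentration response.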

c-KIT kinase, sequence (P10721 544-976): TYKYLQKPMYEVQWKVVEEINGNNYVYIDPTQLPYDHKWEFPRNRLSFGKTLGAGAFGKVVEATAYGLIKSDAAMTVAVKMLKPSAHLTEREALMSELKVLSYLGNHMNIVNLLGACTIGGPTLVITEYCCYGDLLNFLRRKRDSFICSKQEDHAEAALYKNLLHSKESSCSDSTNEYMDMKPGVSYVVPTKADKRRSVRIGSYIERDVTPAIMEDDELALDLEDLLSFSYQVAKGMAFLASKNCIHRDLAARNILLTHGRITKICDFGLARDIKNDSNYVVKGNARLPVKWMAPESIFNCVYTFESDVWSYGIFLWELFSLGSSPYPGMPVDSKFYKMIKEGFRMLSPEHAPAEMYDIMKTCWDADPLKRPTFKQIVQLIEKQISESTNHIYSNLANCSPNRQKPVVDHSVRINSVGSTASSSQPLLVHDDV
T1 sequence (P10721 26-976 K642E): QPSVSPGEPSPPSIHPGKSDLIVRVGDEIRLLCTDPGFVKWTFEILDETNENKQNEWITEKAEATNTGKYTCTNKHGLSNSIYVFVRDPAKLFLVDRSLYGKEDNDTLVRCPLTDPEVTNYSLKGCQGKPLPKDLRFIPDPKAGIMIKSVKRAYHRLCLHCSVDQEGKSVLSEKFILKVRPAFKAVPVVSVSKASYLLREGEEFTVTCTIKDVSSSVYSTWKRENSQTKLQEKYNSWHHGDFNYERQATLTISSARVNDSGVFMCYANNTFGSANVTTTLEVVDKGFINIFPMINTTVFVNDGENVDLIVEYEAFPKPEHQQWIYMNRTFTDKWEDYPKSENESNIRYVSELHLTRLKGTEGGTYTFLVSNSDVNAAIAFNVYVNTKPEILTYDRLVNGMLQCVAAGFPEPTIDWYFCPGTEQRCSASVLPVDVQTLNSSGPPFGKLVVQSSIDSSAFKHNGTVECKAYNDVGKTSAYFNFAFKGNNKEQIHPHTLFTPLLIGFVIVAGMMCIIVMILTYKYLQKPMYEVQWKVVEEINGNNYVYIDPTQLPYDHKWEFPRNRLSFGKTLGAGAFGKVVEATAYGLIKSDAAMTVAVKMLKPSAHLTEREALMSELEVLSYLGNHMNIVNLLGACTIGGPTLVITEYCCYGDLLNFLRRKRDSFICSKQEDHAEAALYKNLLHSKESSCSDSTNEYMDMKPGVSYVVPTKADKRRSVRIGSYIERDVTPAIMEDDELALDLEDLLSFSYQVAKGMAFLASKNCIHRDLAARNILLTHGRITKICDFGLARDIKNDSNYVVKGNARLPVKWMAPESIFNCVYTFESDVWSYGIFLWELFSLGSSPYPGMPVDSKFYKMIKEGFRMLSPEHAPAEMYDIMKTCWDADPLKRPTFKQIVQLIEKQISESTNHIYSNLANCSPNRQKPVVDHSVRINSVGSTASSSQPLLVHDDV
T2 sequence (P10721 544-976 V654A): as the sequence (P10721 544-976) above, with V111A counted along it
T4 sequence (P10721 544-976 D816H): as the sequence (P10721 544-976) above, with D273H counted along it
T3 sequence (P10721 544-976 T670I): as the sequence (P10721 544-976) above, with T127I counted along it

SMILES	IC50 [1]	IC50 [2]	IC50 [3]	IC50 [4]	IC50 [5]	IC50 [6]
CCn1c(=O)c(-c2cc(NC(=O)Nc3ccc(F)c(CN4CCN(C)CC4)c3)c(F)cc2Cl)cc2cnc(NC)cc21 [Example 87, 1-(4-chloro-5-(1-ethyl-7-(methylamino)-2-oxo-1,2-dihydro-1,6-naphthyridin-3-yl)-2-fluorophenyl)-3-(4-fluoro-3-((4-methylpiperazin-1-yl)methyl)phenyl)urea]	100 to 1000 nM	< 10 nM	100 to 1000 nM	10 to 100 nM	10 to 100 nM	100 to 1000 nM
CCn1c(=O)c(-c2cc(NC(=O)Nc3cccc(F)c3)c(F)cc2Cl)cc2cnc(NCCOC)cc21 [Example 28, 1-(4-chloro-5-(1-ethyl-7-(2-methoxyethylamino)-2-oxo-1,2-dihydro-1,6-naphthyridin-3-yl)-2-fluorophenyl)-3-(3-fluorophenyl)urea]	10 to 100 nM	10 to 100 nM	< 10 nM	10 to 100 nM	10 to 100 nM	10 to 100 nM
CCn1c(=O)c(-c2cc(NC(=O)Nc3ccccc3)c(F)cc2Br)cc2cnc(N)cc21 [Example 57, 1-(5-(7-amino-1-ethyl-2-oxo-1,2-dihydro-1,6-naphthyridin-3-yl)-4-bromo-2-fluorophenyl)-3-phenylurea]	100 to 1000 nM	< 10 nM	10 to 100 nM	< 10 nM	10 to 100 nM	10 to 100 nM
CNc1cc2c(cn1)cc(-c1cc(NC(=O)Nc3cccc(F)c3)c(F)cc1Cl)c(=O)n2C(C)C [Example 77, 1-(4-chloro-2-fluoro-5-(1-isopropyl-7-(methylamino)-2-oxo-1,2-dihydro-1,6-naphthyridin-3-yl)phenyl)-3-(3-fluorophenyl)urea]	10 to 100 nM	< 10 nM	10 to 100 nM	100 to 1000 nM	10 to 100 nM	10 to 100 nM
CCn1c(=O)c(-c2cc(NC(=O)Nc3ccccc3)c(F)cc2Cl)cc2cnc(NC(=O)OC)cc21 [Example 73, methyl (3-(2-chloro-4-fluoro-5-(3-phenylureido)phenyl)-1-ethyl-2-oxo-1,2-dihydro-1,6-naphthyridin-7-yl)carbamate]	10 to 100 nM	10 to 100 nM	10 to 100 nM	10 to 100 nM	10 to 100 nM	10 to 100 nM
CCn1c(=O)c(-c2cc(NC(=O)Nc3cc(F)cc(F)c3)c(F)cc2C)cc2cnc(NC)cc21 [Example 60, 1-(3,5-difluorophenyl)-3-(5-(1-ethyl-7-(methylamino)-2-oxo-1,2-dihydro-1,6-naphthyridin-3-yl)-2-fluoro-4-methylphenyl)urea]		< 10 nM	10 to 100 nM	100 to 1000 nM	10 to 100 nM	10 to 100 nM
CCn1c(=O)c(-c2cc(NC(=O)Nc3ccccc3)c(F)cc2Cl)cc2cnc(NC(=O)N(C)C)cc21 [Example 70, 3-(3-(2-chloro-4-fluoro-5-(3-phenylureido)phenyl)-1-ethyl-2-oxo-1,2-dihydro-1,6-naphthyridin-7-yl)-1,1-dimethylurea]	10 to 100 nM	< 10 nM	10 to 100 nM	< 10 nM	10 to 100 nM	< 10 nM
CCn1c(=O)c(-c2cc(NC(=O)Nc3ccccc3)c(F)cc2Br)cc2cnc(NCCOC)cc21 [Example 51, 1-(4-bromo-5-(1-ethyl-7-(2-methoxyethylamino)-2-oxo-1,2-dihydro-1,6-naphthyridin-3-yl)-2-fluorophenyl)-3-phenylurea]	10 to 100 nM	10 to 100 nM	10 to 100 nM	> 1000 nM		10 to 100 nM
CCn1c(=O)c(-c2cc(NC(=O)Nc3cc(F)ccc3F)c(F)cc2C)cc2cnc(NC)cc21 [Example 61, 1-(2,5-difluorophenyl)-3-(5-(1-ethyl-7-(methylamino)-2-oxo-1,2-dihydro-1,6-naphthyridin-3-yl)-2-fluoro-4-methylphenyl)urea]		< 10 nM	10 to 100 nM	< 10 nM	100 to 1000 nM	10 to 100 nM
CCn1c(=O)c(-c2cc(NC(=O)Nc3cccc(F)c3)c(F)cc2C)cc2cnc(NC)cc21 [Example 44, 1-(5-(1-ethyl-7-(methylamino)-2-oxo-1,2-dihydro-1,6-naphthyridin-3-yl)-2-fluoro-4-methylphenyl)-3-(3-fluorophenyl)urea]	10 to 100 nM	< 10 nM	10 to 100 nM	10 to 100 nM	< 10 nM	< 10 nM
CCn1c(=O)c(-c2cc(NC(=O)Nc3cccc(F)c3)c(F)cc2Br)cc2cnc(NC)cc21 [Example 50, 1-(4-bromo-5-(1-ethyl-7-(methylamino)-2-oxo-1,2-dihydro-1,6-naphthyridin-3-yl)-2-fluorophenyl)-3-(3-fluorophenyl)urea]	10 to 100 nM	< 10 nM	10 to 100 nM	10 to 100 nM	10 to 100 nM	< 10 nM
CCn1c(=O)c(-c2cc(NC(=O)Nc3ccccc3)c(F)cc2C)cc2cnc(NC)cc21 [Example 23, 1-(5-(1-ethyl-7-(methylamino)-2-oxo-1,2-dihydro-1,6-naphthyridin-3-yl)-2-fluoro-4-methylphenyl)-3-phenylurea]	10 to 100 nM	< 10 nM	< 10 nM	10 to 100 nM	10 to 100 nM	
CCn1c(=O)c(-c2cc(NC(=O)Nc3ccccc3)c(F)cc2Cl)cc2cnc(NC(=O)N3CC(O)C3)cc21 [Example 81, N-(3-(2-chloro-4-fluoro-5-(3-phenylureido)phenyl)-1-ethyl-2-oxo-1,2-dihydro-1,6-naphthyridin-7-yl)-3-hydroxyazetidine-1-carboxamide]	10 to 100 nM	< 10 nM	10 to 100 nM	10 to 100 nM	< 10 nM	10 to 100 nM
CCn1c(=O)c(-c2cc(NC(=O)Nc3ccccc3)c(F)cc2Cl)cc2cnc(NC(C)=O)cc21 [Example 54, 1-(5-(7-acetamido-1-ethyl-2-oxo-1,2-dihydro-1,6-naphthyridin-3-yl)-4-chloro-2-fluorophenyl)-3-phenylurea]	10 to 100 nM	< 10 nM	10 to 100 nM	10 to 100 nM	< 10 nM	10 to 100 nM
CCn1c(=O)c(-c2cc(NC(=O)Nc3ccccc3)c(F)cc2Cl)cc2cnc(NC)cc21 [Example 3, 1-(4-chloro-5-(1-ethyl-7-(methylamino)-2-oxo-1,2-dihydro-1,6-naphthyridin-3-yl)-2-fluorophenyl)-3-phenylurea]	10 to 100 nM	< 10 nM	< 10 nM	10 to 100 nM	< 10 nM	
CCn1c(=O)c(-c2cc(NC(=O)Nc3ccccc3)c(F)cc2Cl)cc2cnc(NC(=O)N3CC(N(C)C)C3)cc21 [Example 102, N-(3-(2-chloro-4-fluoro-5-(3-phenylureido)phenyl)-1-ethyl-2-oxo-1,2-dihydro-1,6-naphthyridin-7-yl)-3-(dimethylamino)azetidine-1-carboxamide]		< 10 nM	10 to 100 nM	10 to 100 nM	10 to 100 nM	10 to 100 nM
